Assay results published in article PMC12200682 (PLOS One, 2025).

Tests used:
[1] = Lipophilicity assay (chromatographic LogD); format: physicochemical; conditions: pH 7.4
Description: Distribution coefficient (LogD, pH 7.4) was obtained by a high-throughput alternative method. Each compound was dissolved in DMSO at 10 mM. After centrifugation, the solution was measured by reversed-phase HPLC on a C18 column (50 × 4.6 mm, […] Gemini C18, Phenomenex) at pH 7.4, using fast gradient acetonitrile-aqueous buffer mobile phases. The lipophilicity was estimated from a calibration curve using six reference compounds by plotting their respectively measured retention time versus LogD in literature. The chromatographic LogD values were derived directly from the gradient retention time by using this calibration curve.

[2] = Pharmacokinetics of payload in mice; set-up: species or system C57BL/6 mice; conditions: C57BL/6, mouse, in vivo, iv, 0.5 mg/kg
Description: All animal experiments at Shanghai Hengrui were approved by Shanghai Hengrui’s Institutional Animal Care and Use Committee. Studies were performed in accordance with ARRIVE guidelines. C57BL/6 mice (15–18 g body weight, n = 18) were purchased from Beijing Vital River Laboratory Animal Technology Co., Ltd and were held as described in details of mouse xenograft section. Compounds were administered intravenously at 0.5 mg/kg. Blood samples were collected at various time points after dosing. Mice were monitored daily for health condition and humane endpoint criteria. There were no unexpected animal deaths or humane endpoint criteria reached during the study. All of the animals were euthanized by using inhaled carbon dioxide at the end of study. The compound concentrations were determined by SCIEX Triple Quad 7500 LC-MS/MS System (SCIEX).

[3] = Toxicokinetics in cynomolgus monkeys; format: in vivo; conditions: for half-life: both sexes, cynomolgus monkey, in vivo, iv, 40 mg/kg
Description: GLP toxicology and toxicokinetics studies were outsourced to Shanghai InnoStar Bio-tech Co., Ltd. Studies were approved by InnoStar’s Institutional Animal Care and Use Committee and carried out in compliance with ARRIVE guidelines. Cynomolgus monkeys were housed in stainless steel cages at the study institution. The temperature and relative humidity of the room were recorded twice a day with ranged from 18 to 26°C and 40–70%, respectively. Ventilation was constantly operated with ≥ 8 times of air changes per hour. […] Monkey maintenance feed was purchased from qualified supplier with microorganisms, heavy metals and pesticide residues tested. During the study, all animals had ad libitum access to feed and clean deionized water except during specific fasting. […] All animals were acclimated to temperature and relative humidity-controlled environment for few days before randomization. Detailed clinical observation was performed on all cynomolgus monkeys once a day during the acclimation period. All of the animal care staff were trained to maximal reduce the pain of animals. Special training such as animal handling, proper injection for treatment/anesthesia, and painless death were taught to the staff.
Clinical signs, body weight, food consumption, and clinical pathology were monitored twice a day. […] Humane endpoint criteria were observed twice a day during study to examine health and behavior. Animals were sacrificed in less than a day once reached endpoint criteria. There were no unexpected animal deaths during the studies with 16-weeks duration. All of the animals were euthanized by intravenous injection of combination of zoletil and xylazine at the end of study for targeted organ and tissue examinations to evaluate toxicity or when the following humane endpoints were reached: severe injury, severe respiratory depression, severe weight loss, persistent anorexia, significant pain or stress, progressive pain leading to weakness, and persistent or continuous twitching. Final disposal of each animal was recorded on the study records.

[4] = test system: HCC1954; assay: Cell viability assay, HCC1954; format: cell-based; conditions: Homo sapiens, HCC1954, 144 h, read-out: IC50 cytotoxicity
Description: (§1) Cells were seeded into 96-well plates at 1500 cells/well for SK-BR-3, JIMT-1, and NCI-N87, 800 cells/well for HCC1954, 600 cells/well for AGS and MKN-45, 2500 cells/well for MDA-MB-468 and Capan-1, and 1000 cells/well for SNU-16. After overnight incubation, a serially diluted solution of compounds or ADCs was added. Cell viability was evaluated after 6 days using CellTiter-Glo reagent (Promega) according to the manufacturer’s instructions. Luminescence was measured by PHERAstar (BMG LABTECH).

[5] = test system: MKN45; assay: Cell viability assay, MKN45; format: cell-based; conditions: Homo sapiens, MKN-45, 144 h, read-out: IC50 cytotoxicity
Description: as §1

[6] = Parallel artificial membrane permeability (PAMPA) assay; format: in vitro ADME
Description: PAMPA assay was outsourced to Wuxi Apptech Co. Ltd. Briefly, donor plate, acceptor plate and receiver plate formed a sandwich and 200 µL of 5.0 µM donor solutions were added. The concentrations of compounds in both plates were measured by a LC-MS/MS system after 30 minutes. The permeability coefficient (Peff, nm/s) values at pH 5 and 7.4 were calculated.

[7] = test system: nine cancer cell lines; assay: Cell viability assay, panel of nine cancer cell lines; format: cell-based; conditions: Homo sapiens; independent of HER2 expression levels; read-out: IC50 values across nine cancer cell lines
Description: as §1

[8] = test system: NCI-N87; assay: Cell viability assay, NCI-N87; format: cell-based; conditions: Homo sapiens, NCI-N87, 144 h, read-out: IC50 cytotoxicity
Description: as §1

[9] = test system: SK-BR-3; assay: Cell viability assay, SK-BR-3; format: cell-based; conditions: Homo sapiens, SK-BR-3, 144 h, read-out: IC50 cytotoxicity
Description: as §1

[10] = test system: MDA-MB-468; assay: Cell viability assay, MDA-MB-468; format: cell-based; conditions: Homo sapiens, MDA-MB-468, 144 h, read-out: IC50 cytotoxicity
Description: as §1

[11] = test system: AGS; assay: Cell viability assay, AGS; format: cell-based; conditions: Homo sapiens, 144 h, read-out: IC50 cytotoxicity
Description: as §1

[12] = test system: JIMT-1; assay: Cell viability assay, JIMT-1; format: cell-based; conditions: Homo sapiens, JIMT-1, 144 h, read-out: IC50 cytotoxicity
Description: as §1

[13] = test system: Capan-1; assay: Cell viability assay, Capan-1; format: cell-based; conditions: Homo sapiens, CAPAN-1, 144 h, read-out: IC50 cytotoxicity
Description: as §1

[14] = target: T1, human topoisomerase I (Homo sapiens, UniProt P11387); assay: Topoisomerase I inhibition assay; format: biochemical; conditions: read-out: Top I inhibition (IC50)
T1 construct: purchased Inspiralis
T1 sequence (P11387 1-765): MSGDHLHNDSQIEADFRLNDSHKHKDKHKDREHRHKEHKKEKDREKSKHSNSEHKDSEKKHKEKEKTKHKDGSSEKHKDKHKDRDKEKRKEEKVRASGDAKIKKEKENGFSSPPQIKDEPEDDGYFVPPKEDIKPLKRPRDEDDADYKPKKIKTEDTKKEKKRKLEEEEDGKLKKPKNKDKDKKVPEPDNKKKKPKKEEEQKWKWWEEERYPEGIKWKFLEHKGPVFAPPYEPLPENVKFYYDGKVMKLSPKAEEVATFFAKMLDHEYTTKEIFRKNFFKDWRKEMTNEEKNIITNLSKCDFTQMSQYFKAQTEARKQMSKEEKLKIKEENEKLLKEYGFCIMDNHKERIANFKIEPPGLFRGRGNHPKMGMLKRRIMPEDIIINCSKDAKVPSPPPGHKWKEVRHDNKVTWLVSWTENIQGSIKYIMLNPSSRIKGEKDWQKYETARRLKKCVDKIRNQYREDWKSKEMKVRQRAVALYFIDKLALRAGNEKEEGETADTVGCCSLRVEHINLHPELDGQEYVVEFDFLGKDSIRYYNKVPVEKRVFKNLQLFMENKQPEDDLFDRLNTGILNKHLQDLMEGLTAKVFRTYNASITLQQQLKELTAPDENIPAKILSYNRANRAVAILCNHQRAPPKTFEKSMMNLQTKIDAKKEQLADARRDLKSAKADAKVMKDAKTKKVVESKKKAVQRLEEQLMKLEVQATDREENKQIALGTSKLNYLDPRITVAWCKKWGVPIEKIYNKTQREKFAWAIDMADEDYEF
Description: Topoisomerase I inhibition assay was outsourced to Wuxi Apptech Co. Ltd. Topoisomerase I activity was measured using human topoisomerase I microplate assay kit (Inspiralis), according to the manufacturer’s instructions.

CC[C@@]1(O)C(=O)OCc2c1cc1n(c2=O)Cc2c-1nc1cc(F)c(C)c3c1c2[C@@H](NC(=O)[C@H](O)C1CC1)CC3 [SHR169265]
chromatographic logD [1]: 1.89 | AUC(0-t) [2]: 113 ng·h/mL | Cmax [2]: 250 ng/mL | Vd [2]: 1.81 L/kg | clearance [2]: 72.6 mL/min/kg | half-life ([2]; mice, i.v. injection): 0.37 h | RacAUCINF ([3]; analyte after SHR-A1811 40 mg/kg i.v. every 3 weeks, Multiple vs single): 1.07 | half-life ([3]; analyte after SHR-A1811 40 mg/kg i.v. every 3 weeks, Multiple): 101 h | half-life ([3]; analyte after SHR-A1811 40 mg/kg i.v., Single): 107 h | IC50 [4]: 0.55 ± 0.19 nM | IC50 [5]: 0.3 ± 0.07 nM | Papp at 30 min, 5 µM ([6]; pH 5): 13.8 ×10⁻⁶ cm/s | Papp at 30 min, 5 µM ([6]; pH 7.4): 7.16 ×10⁻⁶ cm/s | IC50 [7]: 0.3 to 2.32 nM | IC50 [8]: 1 ± 0.07 nM | IC50 [9]: 0.58 ± 0.1 nM | IC50 [10]: 0.56 ± 0.09 nM | IC50 [11]: 0.36 ± 0.11 nM | IC50 [12]: 2.32 ± 0.45 nM | IC50 [13]: 0.38 ± 0.07 nM | IC50 [14]: 1340 nM
